What was measured:
[1] = molecular target: T1, GST-LXRβ ligand-binding domain (Homo sapiens, UniProt P55055, DUP175-175); experiment: TR-FRETβ activity assay (LXRβ-LBD / NCoA3 coactivator peptide, prestimulated with 24(S)-25-epoxycholesterol); format: biochemical; set-up: key to behavior in FRET assay: ag=agonist; ia=inverse agonist; conditions: for EC50: 1 μM 24(S)-25-epoxycholesterol as prestimulating agonist, read-out: FRETβ activity range (EC50); for behavior in FRET assay: agonist or inverse agonist
T1 construct: amino acids 156-461; NP009052; made in house; host or cells: E. coli
T1 sequence (P55055 with tags, fused parts or gaps DUP175-175): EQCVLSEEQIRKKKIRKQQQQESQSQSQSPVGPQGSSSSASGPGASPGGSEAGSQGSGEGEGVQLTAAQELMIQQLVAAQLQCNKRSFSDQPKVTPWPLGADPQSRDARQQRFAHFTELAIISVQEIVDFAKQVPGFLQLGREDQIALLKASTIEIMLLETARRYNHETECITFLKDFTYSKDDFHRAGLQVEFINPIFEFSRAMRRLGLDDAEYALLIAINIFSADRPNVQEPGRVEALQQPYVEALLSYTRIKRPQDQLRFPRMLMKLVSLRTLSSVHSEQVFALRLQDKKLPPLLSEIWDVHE
Outline: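 E. coli-expressed GST-LXRβ LBD (aa 156-461) at 76 nM with biotinylated NCoA3 coactivator peptide (400 nM), in 240 mM KCl, BSA and Triton-X-100. Anti-GST-Tb cryptate/streptavidin-XL665 TR-FRET after 1 h equilibration at 4 °C, excitation 340 nm, emission 615 and 665 nm. Run in triplicate.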

LXRα full length (FL) = molecular target: T2, LXRα full length (FL) (Homo sapiens, UniProt Q13133); experiment: LXR Gal4 reporter transient transfection assay (M2H), Gal4α FL; format: cell-based; conditions: HEK293 cells; read-out: M2H Gal4α FL activity range (EC50)
T2 construct: the full length (FL) proteins of LXRα (amino acids 1-447); NP005684; expressed in transfected cells; host or cells: HEK293
T2 sequence (Q13133 1-447): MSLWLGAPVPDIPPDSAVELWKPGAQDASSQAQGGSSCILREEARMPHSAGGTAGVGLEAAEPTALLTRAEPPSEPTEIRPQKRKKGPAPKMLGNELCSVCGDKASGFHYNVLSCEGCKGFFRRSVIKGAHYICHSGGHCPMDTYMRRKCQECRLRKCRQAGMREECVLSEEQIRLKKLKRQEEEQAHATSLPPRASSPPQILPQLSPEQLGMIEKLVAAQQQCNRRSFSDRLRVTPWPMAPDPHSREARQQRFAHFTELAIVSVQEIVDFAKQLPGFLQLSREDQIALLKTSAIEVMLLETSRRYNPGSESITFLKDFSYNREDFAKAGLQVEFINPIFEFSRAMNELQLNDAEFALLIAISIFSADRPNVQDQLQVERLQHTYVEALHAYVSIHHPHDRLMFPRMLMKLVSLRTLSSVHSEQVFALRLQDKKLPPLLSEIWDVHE
Outline: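 Mammalian two-hybrid in HEK293 cells transiently transfected with LXRα/β full-length or LBD fused to NFkB activation domain, plus GAL4-DBD fusions of SRC1 coactivator or NCoR corepressor domains and a GAL4-responsive firefly luciferase reporter. Compounds added 4 h post-transfection (vehicle ≤0.2% DMSO), 16 h incubation; firefly luciferase normalized to Renilla.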

Compound | EC50 [1] | behavior in FRET assay [1] | EC50 (LXRα full length (FL))
Cc1cc(C)c(S(=O)(=O)N(Cc2ccc(-c3cccc(CC(=O)O)c3)cc2)Cc2ccc(C(F)(F)F)o2)c(C)c1 [Example 2, 2-(4′-(((2,4,6-Trimethyl-N-((5-(trifluoromethyl)furan-2-yl)methyl)phenyl)sulfonamido)methyl)-[1,1′-biphenyl]-3-yl)acetic acid] | 100 to 1000 nM | ia | < 100 nM
Cc1cc(C)c(S(=O)(=O)N(Cc2ccc(-c3cccc(CC(=O)O)c3)cc2)C(C)c2ccc(C(F)(F)F)o2)c(C)c1 (centres unmarked) [2/2] | 100 to 1000 nM | ia | < 100 nM
COc1cc(-c2cccc(C(C)(C)C(=O)O)c2)ccc1CN(Cc1ccc(C(F)(F)F)o1)S(=O)(=O)c1c(C)cc(C)cc1C [10/4] | < 100 nM | ia | < 100 nM
Cc1cc(C)c(S(=O)(=O)N(Cc2ccc(-c3cccc(C(C)(C)C(=O)O)c3)cc2)Cc2ccc(C(F)(F)F)o2)c(C)c1 [7/5] | 100 to 1000 nM | ia | < 100 nM
Cc1ccc2ccccc2c1S(=O)(=O)N(Cc1ccc(-c2cccc(S(=O)(=O)CC(=O)O)c2)cc1)Cc1cccc(C(F)(F)F)c1 [11/19] | 1000 to 10000 nM | ia | 100 to 1000 nM
Cc1cc(C)c(S(=O)(=O)N(Cc2ccc(C(F)(F)F)o2)Cc2ccc(-c3cccc(C(C)(C)C(=O)O)c3)cc2Cl)c(C)c1 [10/5] | < 100 nM | ia | < 100 nM
Cc1cc(C)c(S(=O)(=O)N(Cc2ccc(-c3cccc(S(=O)(=O)C(C)(C)C(=O)O)c3)cc2)Cc2ccc(C(F)(F)F)o2)c(C)c1 [5/2] | 1000 to 10000 nM | ia | 100 to 1000 nM
Cc1ccc2ccccc2c1S(=O)(=O)N(Cc1ccc(-c2cccc(C(C)(C)C(=O)O)c2)cc1)Cc1ccc(C(F)(F)F)o1 [Example 24, 2-Methyl-2-(4′-(((2-methyl-N-((5-(trifluoromethyl)furan-2-yl)methyl)naphthalene)-1-sulfonamido)methyl)-[1,1′-biphenyl]-3-yl)propanoic acid] | < 100 nM | ia | < 100 nM
Cc1cc(C)c(S(=O)(=O)N(Cc2ccc(-c3cc(F)c(CO)c(S(C)(=O)=O)c3)cc2)Cc2ccc(C(F)(F)F)o2)c(C)c1 [Example C3/2] | < 100 nM | ia | < 100 nM
Cc1cc(C)c(S(=O)(=O)N(Cc2ccc(-c3cccc(S(=O)(=O)CC(=O)O)c3)cc2)Cc2ccc(C(F)(F)F)o2)c(C)c1 [Example 5, 2-((4′-(((2,4,6-Trimethyl-N-((5-(trifluoromethyl)furan-2-yl)methyl)phenyl)sulfonamido)methyl)-[1,1′-biphenyl]-3-yl)sulfonyl)acetic acid] | 1000 to 10000 nM | – | 1000 to 10000 nM

Reference: patent US20200115357A1, “LIVER X RECEPTORS (LXR) MODULATORS” (Phenex-FXR GmbH, priority 2017, published 2020)
